Here are results for one compound from US20240335395A1, “COMPOSITIONS AND METHODS FOR PREVENTING AND/OR TREATING DISEASE ASSOCIATED WITH IL-23 EXPRESSION” (ALLSPIM, priority 2021, published 2024).

Assay [1] relates to laser-induced choroidal neovascularization (CNV). The assay is described as follows: Laser-induced CNV in rats, CNV surface on lectin-labelled RPE-choroid flat-mounts. In kind it is in vivo, rat. The note with it: intravitreous injection. How it is done: Animals. All experiments were performed in accordance with the European Communities Council Directive 86/609/EEC and approved by local ethical committees (#2541-2015110210279792 v3). Six- to eight-week-old male Long Evans rats from the Janvier Breeding Center (Le Genest-Saint-Isle, France) were used to create a rat model of choroidal neovascularization (CNV) used as a model of human wet macular degeneration. Laser-induced CNV. After anesthesia and dilation of the pupils, coverslips were positioned on the cornea as a contact glass. […] Animals were sacrificed at 7 days (n=6 per group- and at 16 days (n=6 per group). RPE-choroid flat-mounts and CNV quantifications. Two days after FA examination (time necessary for fluorescein elimination), eyes were enucleated, fixed in 4% PFA for 15 min at room temperature and sectioned at the limbus; the cornea and lens were discarded. The retina was separated from the RPE-choroid complex. Eight radial incisions were made on the RPE-choroid, which was then flat-mounted and post-fixed with acetone for 15 min at −20° C. After washing with 0.1% Triton x100 in PBS, FITC-GSL I-Isolectin B4 (1:200, Vector, AbCys, Paris, France) was applied over night at […] Images of the CNV were captured with a digital video camera coupled to a computer system on an Olympus fluorescence microscope. […]

The subject of assay [2] is TNF-alpha. Kind of assay: MSU-induced TNF-alpha in knee joint tissue (multiplex microassay). In kind it is in vivo, mouse. The note with it: 2,4-D 100 mg/kg, CLC 1 mg/kg, DEX 0.5 mg/kg. How it is done:
Mice (six per group) were treated with 2,4-D (100 mg/kg or 20 mg/kg, i.p.), CLC (1 mg/kg or 0.2 mg/kg, i.p.), DEX (0.5 mg/kg or 0.1 mg/kg, i.p.), or vehicle (20% polyoxyethylenesorbitan monooleate (Tween 80) plus PBS) 30 min before intra-articular stimulus with MSU (100 μg/10 μL, i.a.). Six mice with intra-articular injection with PBS alone served as a negative control.
Induction of MSU-Induced Knee Joint Inflammation. Male ICR (CD-1) mice (35-45 g, 10-12 weeks) were purchased from VitalRiver Inc (Beijing, China) and were kept in an animal care facility under controlled temperature of 21±1° C., humidity, and on a light/dark cycle, with ad libitum access to water and standard laboratory chow diet. Animal care and handling procedures were approved by the Animal Ethics Committee of GZUCM (Guangzhou University of Chinese Medicine). All efforts were made to minimize animal suffering and to reduce the number of animals used. Joint inflammation was induced by the intra-articular (i.a.) administration of MSU (200 μg/20 μl) into the right and left knee joints of mice under inhaled 3% isoflurane anesthesia. Control animals received an injection (i.a.) of sterile PBS (20 μL).
Cytokine Measurement. Mice were anesthetized and sacrificed. Knee joints were collected and frozen in liquid nitrogen. Samples were then homogenized in 500 μl of buffer containing protease inhibitors, centrifuged (3600 rpm, 4° C., 15 min) and supernatants were used to determine Th1/Th2/Th17 cytokine levels using a multiplex microassay (Qantibody® mouse TH17 Array 1 kit, Cat. No.: QAM-TH17-1; RayBiotech, Norcross, GA). Results were expressed as picograms (pg) of cytokine/mg of tissue.
Statistical Analysis. […] For in vitro experiments, microassays were performed in quadruplicate. p<0.05 was considered significant (*p<0.05, **p<0.01, ***p<0.001).

Assay [3] concerns IL-17. Kind of assay: IL-17 protein in culture supernatant of RA-patient synovial cells. The note with it: increasing concentrations. It is filed as cell-based, human.

In the case of `COc1cc(O)c(OC)c(O)c1C(=O)/C=C/c1ccccc1` [2,4-D, 2′,4′-dihydroxy-3′,6′-dimethoxychalcone], the “CNV size (surface of lectin positive labelling)” value in assay [1] is reported as “significantly reduced”. Also, the “decrease of TNF-alpha in knee joint tissue” value in assay [2] was found to be 1.9 fold. Besides, in assay [3], the “concentration of IL-17 protein in the culture supernatant” value was “significantly inhibited”.
